Reference: ChEMBL document CHEMBL3407467, “Recent advances in the chemistry and biology of pyridopyrimidines” (Eur J Med Chem, 2015)
One block for each compound: values may come before it.

Experiments:
[1] = Inhibition of human DHFR mutant by spectrophotometric assay
[2] = target: T1, Dihydrofolate reductase (Homo sapiens, UniProt P00374); assay: Inhibition of recombinant human DHFR expressed in Escherichia coli Rosetta Gami B (DE3) by spectrophotometric assay
T1 sequence (P00374 whole entry): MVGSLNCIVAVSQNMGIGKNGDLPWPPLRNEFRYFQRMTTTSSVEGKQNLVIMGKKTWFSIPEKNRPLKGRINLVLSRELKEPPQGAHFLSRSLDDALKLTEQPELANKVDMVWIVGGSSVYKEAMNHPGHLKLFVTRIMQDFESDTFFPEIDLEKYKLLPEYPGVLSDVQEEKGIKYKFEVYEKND

[3] = Inhibition of recombinant Pneumocystis jirovecii DHFR expressed in Escherichia coli Rosetta Gami B (DE3) by spectrophotometric assay
[4] = Inhibition of Pneumocystis carinii DHFR K37Q/F69N mutant by spectrophotometric assay
[5] = target: T2, Dihydrofolate reductase (Pneumocystis carinii, UniProt P16184); assay: Inhibition of recombinant Pneumocystis carinii DHFR expressed in Escherichia coli Rosetta Gami B (DE3) by spectrophotometric assay
T2 sequence (P16184 whole entry): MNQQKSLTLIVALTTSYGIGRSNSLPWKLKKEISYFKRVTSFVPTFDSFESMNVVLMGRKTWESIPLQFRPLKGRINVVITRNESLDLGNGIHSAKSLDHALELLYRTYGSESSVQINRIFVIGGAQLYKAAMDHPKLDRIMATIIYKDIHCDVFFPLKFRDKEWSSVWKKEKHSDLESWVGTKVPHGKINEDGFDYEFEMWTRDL

[6] = target: Dihydrofolate reductase (Pneumocystis carinii, UniProt P16184, K37Q); assay: Inhibition of Pneumocystis carinii DHFR K37Q mutant by spectrophotometric assay
Chain of Dihydrofolate reductase (Pneumocystis carinii, UniProt P16184, K37Q) (P16184 whole entry K37Q): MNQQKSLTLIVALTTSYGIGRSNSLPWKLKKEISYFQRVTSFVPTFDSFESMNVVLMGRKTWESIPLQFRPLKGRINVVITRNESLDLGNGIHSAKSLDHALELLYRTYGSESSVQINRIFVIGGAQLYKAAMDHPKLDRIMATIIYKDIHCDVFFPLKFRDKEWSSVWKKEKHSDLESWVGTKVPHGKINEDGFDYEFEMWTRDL

[7] = Inhibition of Pneumocystis jirovecii DHFR
[8] = target: Receptor tyrosine-protein kinase erbB-2 (Homo sapiens, UniProt P04626); assay: Inhibition of ErbB-2 intracellular domain (unknown origin) purified from a baculovirus expression system using Biotin-(amino hexonoic acid)-EEEEYFELVAKKK-CONH2 as substrate after 10 mins by scintillation counting in presence of [gamma-33P]ATP
Chain of Receptor tyrosine-protein kinase erbB-2 (P04626 whole entry, the tested form may be a part): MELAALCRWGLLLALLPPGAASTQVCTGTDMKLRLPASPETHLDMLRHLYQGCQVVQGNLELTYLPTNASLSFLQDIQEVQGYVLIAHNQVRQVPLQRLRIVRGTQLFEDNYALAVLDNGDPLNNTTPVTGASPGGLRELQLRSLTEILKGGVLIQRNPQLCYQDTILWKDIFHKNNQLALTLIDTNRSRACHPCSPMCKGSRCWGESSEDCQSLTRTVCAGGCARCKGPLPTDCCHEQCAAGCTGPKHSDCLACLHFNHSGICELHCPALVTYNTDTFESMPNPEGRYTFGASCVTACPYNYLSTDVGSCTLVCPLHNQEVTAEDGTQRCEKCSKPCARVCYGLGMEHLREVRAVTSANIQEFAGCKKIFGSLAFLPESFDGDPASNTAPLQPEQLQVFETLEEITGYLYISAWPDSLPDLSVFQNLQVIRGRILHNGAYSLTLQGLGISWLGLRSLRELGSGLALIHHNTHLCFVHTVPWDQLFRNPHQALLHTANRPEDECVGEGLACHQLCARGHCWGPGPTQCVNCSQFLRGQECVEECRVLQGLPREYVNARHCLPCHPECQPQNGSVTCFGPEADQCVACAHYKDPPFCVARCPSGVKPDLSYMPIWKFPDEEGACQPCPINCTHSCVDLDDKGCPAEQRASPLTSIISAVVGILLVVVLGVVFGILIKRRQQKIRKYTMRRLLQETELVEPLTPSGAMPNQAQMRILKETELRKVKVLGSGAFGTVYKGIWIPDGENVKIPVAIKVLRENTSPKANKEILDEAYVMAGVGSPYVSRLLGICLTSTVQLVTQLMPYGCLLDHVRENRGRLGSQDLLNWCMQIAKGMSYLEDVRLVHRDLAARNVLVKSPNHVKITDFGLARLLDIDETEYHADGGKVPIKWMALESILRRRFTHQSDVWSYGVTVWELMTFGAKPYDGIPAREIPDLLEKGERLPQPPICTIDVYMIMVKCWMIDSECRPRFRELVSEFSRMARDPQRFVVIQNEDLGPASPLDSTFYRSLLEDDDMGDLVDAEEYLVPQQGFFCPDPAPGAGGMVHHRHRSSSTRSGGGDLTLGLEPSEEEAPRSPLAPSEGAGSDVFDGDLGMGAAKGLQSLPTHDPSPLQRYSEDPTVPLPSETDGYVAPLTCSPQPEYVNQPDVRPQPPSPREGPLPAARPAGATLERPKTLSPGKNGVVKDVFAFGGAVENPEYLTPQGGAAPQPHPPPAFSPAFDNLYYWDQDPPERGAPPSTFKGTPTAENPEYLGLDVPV

[9] = target: Adenosine kinase (Homo sapiens, UniProt P55263); assay: Inhibition of adenosine kinase (unknown origin)
Chain of Adenosine kinase (P55263 whole entry): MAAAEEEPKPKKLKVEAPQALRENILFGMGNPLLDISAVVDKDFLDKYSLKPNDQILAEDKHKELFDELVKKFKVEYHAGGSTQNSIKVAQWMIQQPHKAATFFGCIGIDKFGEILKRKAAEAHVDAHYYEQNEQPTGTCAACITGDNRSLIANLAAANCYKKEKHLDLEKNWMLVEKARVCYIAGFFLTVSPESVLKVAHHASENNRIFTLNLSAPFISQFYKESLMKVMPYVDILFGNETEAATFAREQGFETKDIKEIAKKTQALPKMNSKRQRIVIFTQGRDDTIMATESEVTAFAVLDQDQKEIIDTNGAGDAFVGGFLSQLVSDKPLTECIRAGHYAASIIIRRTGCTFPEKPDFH

IC50 [7]: 4.2 nM
SMILES: CN(c1cc(F)c(F)c(F)c1)c1cnc2nc(N)nc(N)c2c1

IC50 [9]: 2 nM
SMILES: Nc1ncnc2nc(-c3ccc(N4CCOCC4)nc3)cc(-c3cccc(Br)c3)c12

IC50 [8]: 16 nM
SMILES: CN(C)c1cc2c(Nc3ccc4c(cnn4Cc4ccccc4)c3)ncnc2cn1 [GW282974X]

Further lines, the compound ahead of its results:

SMILES: Nc1nc(N)c2cc(CNc3cc(Cl)ccc3Cl)cnc2n1
Ki [1]: 0.58 nM
Ki [2]: 24.4 nM
Ki [3]: 2.7 nM
Ki [4]: 0.71 nM
Ki [5]: 6.3 nM
Ki [6]: 0.26 nM

SMILES: CN(CCO)c1cc2c(Nc3ccc4c(cnn4Cc4ccccc4)c3)ncnc2cn1
IC50 [8]: 30 nM

SMILES: [O-][S+]1CCN(Cc2ccc(-c3cc4c(Nc5ccc(OCc6cccc(F)c6)cc5)ncnc4cn3)o2)CC1
IC50 [8]: 21 nM

SMILES: CS(=O)(=O)CCNCc1ccc(-c2cc3c(Nc4ccc(OCc5ccccc5)cc4)ncnc3cn2)o1
IC50 [8]: 26 nM
